# Literature values in US8084059B2, “Antidepressant dosage form” (ALZA Corporation, priority 1993, dated 2011).
# Tests used:
# [1] = tested on: neuronal uptake of morepinephrine; settings: in vitro
# [2] = tested on: neuronal uptake of dopamine; settings: in vitro
# [3] = tested on: monoamine oxidase; settings: in vitro
# [4] = tested on: reserpine-induced hypothermia; settings: in vivo
# [5] = tested on: effects of levodopa; settings: in vivo
# [6] = tested on: histamine-induced corticotropin release; settings: in vivo
# [7] = tested on: cyclicadenosine monophosphate subsensitivity; settings: after both acute and chronic administration
# [8] = humans
structure (smiles),measurement,setting,value
COc1ccc(C(CN(C)C)C2(O)CCCCC2)cc1 (centres unmarked) [1-[2-(dimethylamino)-1-(4-methoxyphenyl)ethyl]cyclohexanol],neuronal uptake of morepinephrine,[1],prevents
same,neuronal uptake of dopamine,[2],prevents
same,inhibition of monoamine oxidase,[3],does not inhibit
same,effect on reserpine-induced hypothermia,[4],antagonizes
same,effect on the effects of levodopa,[5],potentiates
same,effect on histamine-induced corticotropin release,[6],reduces
same,cyclicadenosine monophosphate subsensitivity,[7],induces
same,antidepressant activity,[8],excellent
